# Measurements: patent publication US10710986B2, “PD-1/PD-L1 inhibitors” (Gilead Sciences, Inc., priority 2018, dated 2020)
# Target: PD-1/PD-L1 (Homo sapiens (Human), UniProt Q9NZQ7)
# Assay: PD-1/PD-L1 biochemical protein-protein interaction assay (ALPHA)
# Details: 0.3 nM His tagged PD-L1, 2.5 nM biotinylated Fc-PD-1, 60 minutes at 25° C., read-out: IC50 PD-L1-PD1
# Description: Binding of the protein pairs is measured using a bead based Amplified Luminescent Proximity Homogeneous Assay (ALPHA) platform. Binding of each protein pair results in proximity of the donor and acceptor beads which leads to an increase in ALPHA signal. […] Assays are performed in 25 mM Hepes (pH 7.4), 150 mM NaCl, 3.4 mM EDTA, 0.005% Tween 20, and 0.01% BSA. […] After an assay reaction time of 60 minutes at 25° C., binding was measured with addition of 20 μg/mL ALPHA assay acceptor beads (anti-His coated) and 20 µg/mL ALPHA assay donor beads (streptavidin coated). IC50 values were calculated from the fit of the dose-response curves to a four-parameter equation.
# Chain of PD-1/PD-L1 (Q9NZQ7 19-238): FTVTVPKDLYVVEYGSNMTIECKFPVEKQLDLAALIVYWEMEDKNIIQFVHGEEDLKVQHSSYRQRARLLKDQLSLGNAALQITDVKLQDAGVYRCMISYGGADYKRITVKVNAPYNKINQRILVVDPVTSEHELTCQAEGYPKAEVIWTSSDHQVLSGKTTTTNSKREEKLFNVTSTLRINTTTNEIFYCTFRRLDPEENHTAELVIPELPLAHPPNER
row,Compound,IC50
1,COc1nc(-c2cccc(-c3cccc(-c4cnc(CN5CC6(C5)CN(C(C)=O)C6)c(OC)n4)c3Cl)c2Cl)cnc1CN [compound 597],129 pM
2,COc1nc(-c2cccc(-c3cccc(-c4cnc(CN5CC[C@@H](C(=O)O)C5)c(OC)n4)c3Cl)c2Cl)cnc1CNC[C@@H]1CCC(=O)N1 [compound 552],144 pM
3,COc1nc(-c2cccc(-c3cccc(-c4cnc(CNC[C@@H]5CCC(=O)N5)c(OC)n4)c3Cl)c2Cl)cnc1CNCCCc1nc2ccccc2[nH]1 [compound 419],542 pM
4,COc1nc(-c2cccc(-c3cccc(-c4cnc(CNCC5(C#N)CCC5)c(OC)n4)c3Cl)c2Cl)cnc1CNC[C@@H]1CCC(=O)N1 [compound 213],840 pM
5,COc1nc(-c2cccc(-c3cccc(-c4cnc(CN[C@@H]5C[C@@H]5C(F)F)c(OC)n4)c3Cl)c2Cl)cnc1CNC[C@@H]1CCC(=O)N1 [compound 180],1030 pM
6,COc1nc(-c2cccc(-c3cccc(-c4cnc(CNC[C@H]5C[C@H](O)C5)c(OC)n4)c3Cl)c2Cl)ccc1CNC[C@@H]1CCC(=O)N1 [compound 656],167 pM
7,CNC(=O)CNCc1ncc(-c2cccc(-c3cccc(-c4cnc(CNC[C@@H]5CCC(=O)N5)c(OC)n4)c3Cl)c2Cl)nc1OC [compound 288],260 pM
8,COc1nc(-c2cccc(-c3cccc(-c4cnc(CN5CC[C@H](OC)C5)c(OC)n4)c3Cl)c2Cl)cnc1CNC[C@@H]1CCC(=O)N1 [compound 430],71 pM
9,COc1nc(-c2cccc(-c3cccc(-c4cnc(CN5CCC6(CCC(=O)N6)C5)c(OC)n4)c3Cl)c2Cl)cnc1CNC[C@H]1CCC(=O)N1 (stereo partly drawn) [compound 197],230 pM
10,COc1nc(-c2cccc(-c3cccc(-c4cnc(CNCCO)c(OC)n4)c3Cl)c2F)cnc1CNCCO [compound 5],213 pM
11,COc1nc(-c2cccc(-c3cccc(-c4cnc(CN5CC6(CCC(=O)N6)C5)c(OC)n4)c3Br)c2F)cnc1CN1CC2(CCC(=O)N2)C1 [compound 394],1780 pM
12,COc1nc(-c2cccc(-c3cccc(-c4cnc(CN5CCC6(CNC(=O)C6)C5)c(OC)n4)c3Cl)c2Cl)cnc1CNC[C@H]1CCC(=O)N1 (stereo partly drawn) [compound 193],133 pM
13,COc1nc(-c2cccc(-c3cccc(-c4cnc(CNC[C@H]5CNC(=O)C5)c(OC)n4)c3Cl)c2Cl)cnc1CNC[C@H]1CNC(=O)C1 [compound 475],162 pM
14,COc1nc(-c2cccc(-c3cccc(-c4cnc(CNC[C@@H]5CCC(=O)N5)c(OC)n4)c3Cl)c2Cl)cnc1CNCCC1CNC(=O)C1 (stereo partly drawn) [compound 235],106 pM
15,COc1nc(-c2cccc(-c3cccc(-c4cnc(CNC56CC(C5)C6)c(OC)n4)c3Cl)c2Cl)cnc1CNC12CC(C1)C2 [compound 86],3050 pM
16,COc1nc(-c2cccc(-c3cccc(-c4cnc(CNC[C@H]5CCOC5)c(OC)n4)c3Cl)c2Cl)cnc1CNC[C@H]1CCOC1 [compound 579],782 pM
17,COc1nc(-c2cccc(-c3cccc(-c4cnc(CN5CC(NS(N)(=O)=O)C5)c(OC)n4)c3Cl)c2Cl)cnc1CN1CC(NS(N)(=O)=O)C1 [compound 571],64 pM
18,COc1nc(-c2cccc(-c3cccc(-c4cnc(CN[C@@H]5CCC[C@@H]5O)c(OC)n4)c3Cl)c2Cl)cnc1CNC[C@@H]1CCC(=O)N1 [compound 381],85 pM
19,COc1nc(-c2cccc(-c3cccc(-c4cnc(CNC[C@@H]5CCC(=O)N5)c(OC)n4)c3Cl)c2Cl)cnc1CNCC1CCC(C(N)=O)O1 (stereo partly drawn) [compound 56],90 pM
20,COc1nc(-c2cccc(-c3cccc(-c4cnc(CNCCNS(C)(=O)=O)c(OC)n4)c3Cl)c2Cl)cnc1CNCCNS(C)(=O)=O [compound 575],64 pM
21,COc1nc(-c2cccc(-c3cccc(-c4cnc(CN5CC6(C5)CS(=O)(=O)C6)c(OC)n4)c3Cl)c2Cl)cnc1CNC[C@@H]1CCC(=O)N1 [compound 367],64 pM
22,COc1nc(-c2cccc(-c3cccc(-c4cnc(CNC5(c6ccccn6)CC5)c(OC)n4)c3Cl)c2Cl)cnc1CNC[C@@H]1CCC(=O)N1 [compound 421],603 pM
23,CNc1nc(-c2cccc(-c3cccc(-c4cnc(CN5CC6(C5)CN(C(C)=O)C6)c(OC)n4)c3Cl)c2Cl)cnc1CN1CC2(C1)CN(C(C)=O)C2 [compound 59],100 pM
24,COc1nc(-c2cccc(-c3cccc(-c4cnc(CNC5CCC6(CNC(=O)C6)C5)c(OC)n4)c3Cl)c2Cl)cnc1CNC[C@H]1CCC(=O)N1 (stereo partly drawn) [compound 202],144 pM
25,COc1nc(-c2cccc(-c3cccc(-c4cnc(CNC[C@@H]5C[C@@H](CC(F)(F)F)C(=O)N5)c(OC)n4)c3Cl)c2Cl)cnc1CNC[C@@H]1C[C@@H](CC(F)(F)F)C(=O)N1 [compound 330],5680 pM
26,COc1nc(-c2cccc(-c3cccc(-c4cnc(CNC[C@@H]5CCC(=O)N5)c(OC)n4)c3Cl)c2Cl)ccc1CN[C@@H]1CCOC1 [compound 170],227 pM
27,COc1nc(-c2cccc(-c3cccc(-c4cnc(CN[C@H]5C[C@@](O)(CO)C5)c(OC)n4)c3Cl)c2Cl)cnc1CNC[C@@H]1CCC(=O)N1 [compound 600],64 pM

row,Compound,IC50
1,COc1nc(-c2cccc(-c3cccc(-c4cc(C)c(CNC[C@H]5C[C@H](O)C5)c(OC)n4)c3Cl)c2Cl)cnc1CNC[C@@H]1CCC(=O)N1 [compound 652],120 pM
2,COc1nc(-c2cccc(-c3cccc(-c4cc(C)c(CN5CC(C(=O)O)C6(CCOC6)C5)c(OC)n4)c3Cl)c2Cl)cnc1CNC[C@@H]1CCC(=O)N1 (stereo partly drawn) [compound 654],71 pM
3,COc1nc(-c2cccc(-c3cccc(-c4cnc(CNC[C@@H]5CCC(=O)N5)c(OC)n4)c3F)c2Cl)ccc1CNC[C@@H]1CCC(=O)N1 [compound 614],79 pM
4,COc1nc(-c2cccc(-c3cccc(-c4cnc(CNC[C@@H]5CCC(=O)N5)c(OC)n4)c3Cl)c2Cl)cnc1CNCC1CCN(C(C)=O)C1 (stereo partly drawn) [compound 227],136 pM
5,COc1nc(-c2cccc(-c3cccc(-c4cnc(CN5CCC6(C5)NC(=O)NC6=O)c(OC)n4)c3Cl)c2Cl)cnc1CNC[C@@H]1CCC(=O)N1 (stereo partly drawn) [compound 292],229 pM
6,COc1nc(-c2cccc(-c3cccc(-c4cnc(CN5CC(C)(O)C5)c(OC)n4)c3Cl)c2Cl)cnc1CN [compound 596],181 pM
7,COc1nc(-c2cccc(-c3cccc(-c4cnc(CN[C@@H]5CCOC5)c(OC)n4)c3Cl)c2Cl)cnc1CNC[C@@H]1CCC(=O)N1 [compound 360],401 pM
8,COc1cc(-c2cccc(-c3cccc(-c4cnc(CN)c(OC)n4)c3Cl)c2Cl)ccc1CN [compound 122],1690 pM
9,COc1nc(-c2cccc(-c3cccc(-c4cnc(CN5CCC6(CCOC6=O)C5)c(OC)n4)c3Cl)c2Cl)cnc1CNC[C@@H]1CCC(=O)N1 (stereo partly drawn) [compound 232],312 pM
10,COc1nc(-c2cccc(-c3cccc(-c4cnc(CNC[C@@H]5CCC(=O)N5)c(OC)n4)c3Cl)c2Cl)cnc1CNCc1ccc(S(N)(=O)=O)s1 [compound 337],1100 pM
11,COc1nc(-c2cccc(-c3cccc(-c4cnc(CNC[C@@H]5CCC(=O)N5)c(OC)n4)c3Cl)c2Cl)ccc1CN1CCC(C)(O)CC1 [compound 158],162 pM
12,COc1nc(-c2cccc(-c3cccc(-c4cnc(C5=NCCN5)c(OC)n4)c3Cl)c2Cl)ccc1CNC[C@@H]1CCC(=O)N1 [compound 645],64 pM
13,CN(C)c1nc(-c2cccc(-c3cccc(-c4cnc(CN5CC(O)C5)c(Cl)n4)c3Cl)c2Cl)cnc1CN1CC(O)C1 [compound 100],146 pM
14,COc1nc(-c2cccc(-c3cccc(-c4cnc(CNC[C@@H]5CCC(=O)N5)c(OC)n4)c3Cl)c2Cl)cnc1CN [compound 318],150 pM
15,COc1nc(-c2cccc(-c3cccc(-c4cnc(CNC[C@H]5C[C@@H](OC)C5)c(OC)n4)c3Cl)c2Cl)cnc1CNC[C@@H]1CCC(=O)N1 [compound 228],168 pM
16,COc1nc(-c2cccc(-c3cccc(-c4cnc(CN[C@H]5CCOC[C@@H]5O)c(OC)n4)c3Cl)c2Cl)cnc1CNC[C@@H]1CCC(=O)N1 [compound 335],172 pM
17,COc1nc(-c2cccc(-c3cccc(-c4cnc(CN5CC(N6CCCC6=O)C5)c(OC)n4)c3Cl)c2Cl)cnc1CNC[C@@H]1CCC(=O)N1 [compound 14],224 pM
18,COc1nc(-c2cccc(-c3cccc(-c4cnc([C@H](C)N)c(OC)n4)c3Cl)c2Cl)cnc1[C@H](C)N [compound 385],292 pM
19,COc1nc(-c2cccc(-c3cccc(-c4cnc([C@@H](C)N)c(OC)n4)c3Cl)c2Cl)cnc1CNC[C@@H]1CCC(=O)N1 [compound 315],180 pM
20,COc1nc(-c2cccc(-c3cccc(-c4cnc(C5=NC[C@H](C)N5)c(OC)n4)c3Cl)c2Cl)ccc1CNC[C@@H]1CCC(=O)N1 [compound 643],64 pM
21,COc1nc(-c2cccc(-c3cccc(-c4cnc(CN5CC6CC6(CO)C5)c(OC)n4)c3Cl)c2Cl)cnc1CNC[C@@H]1CCC(=O)N1 (stereo partly drawn) [compound 52],170 pM
22,COc1nc(-c2cccc(-c3cccc(-c4cnc(CNC(CO)CF)c(OC)n4)c3Cl)c2Cl)cnc1CNC[C@@H]1CCC(=O)N1 (stereo partly drawn) [compound 248],180 pM
23,CN(C)c1nc(-c2cccc(-c3cccc(-c4cnc(CN5CC6(CCC(=O)N6)C5)c(Cl)n4)c3Cl)c2Cl)cnc1CN1CC2(CCC(=O)N2)C1 [compound 104],77 pM
24,COc1nc(-c2cccc(-c3cccc(-c4cnc(CN5C[C@H](O)[C@@H](O)C5)c(OC)n4)c3Cl)c2Cl)cnc1CNC[C@@H]1CCC(=O)N1 [compound 529],91 pM
25,COc1nc(-c2cccc(-c3cccc(-c4cnc(CN5CC(O)C5)c(OC)n4)c3Br)c2Br)cnc1CN1CC(O)C1 [compound 112],76 pM
26,COc1nc(-c2cccc(-c3cccc(-c4cnc(CN[C@H]5C[C@@](C)(O)C5)c(OC)n4)c3Cl)c2Cl)cnc1CN[C@H]1C[C@@](C)(O)C1 [compound 241],270 pM
27,COc1nc(-c2cccc(-c3cccc(-c4cnc(CN[C@H]5C[C@H](CO)C5)c(OC)n4)c3Cl)c2Cl)cnc1CNC[C@@H]1CCC(=O)N1 [compound 511],197 pM
